Counter-ions that a name gives are not always drawn. Like-named read-outs stand apart in the source and are kept apart here.
Key:
[1] = system: E. coli MG1655; assay: High-throughput screening of FDA-approved drug library for antibiotic adjuvants (growth inhibition, OD600); type: cell-based, Escherichia coli; conditions: library drug alone, LB medium, 96-well, 8 h static culture at 37°C, relative to PMBN (positive) and DMSO (negative) controls, %, table head prints no unit
[2] = system: E. coli MG1655; assay: as above; type: cell-based, Escherichia coli

Compound	Growth inhibition, Compound [1] [%]	Growth inhibition, Compound + rifampin [2] [%]	Growth inhibition, Compound + rifampin ([2]; library drug with 2 μg/mL rifampin, LB medium, 96-well, 8 h static culture at 37°C, OD600, relative to PMBN (positive) and DMSO (negative) controls, %, table head prints no unit) [%]
CN[C@@H]1[C@@H](O)[C@@H](O[C@@H]2[C@@H](O)[C@H](O[C@H]3OC(CN)=CC[C@H]3N)[C@@H](N)C[C@H]2N)OC[C@]1(C)O [Sisomicin Sulfate]	105	–	–
CN(C)[C@@H]1C(O)=C(C(N)=O)C(=O)[C@@]2(O)C(O)=C3C(=O)c4c(O)ccc(Cl)c4[C@@](C)(O)[C@H]3C[C@@H]12 [Chlortetracycline hydrochloride]	111	–	–
O=c1[nH]c(=O)n([C@H]2C[C@H](O)[C@@H](CO)O2)cc1F [Floxuridine]	87	–	–
C[C@@H]1CC[C@H]2[C@@H](C)C(=O)O[C@@H]3O[C@@]4(C)CC[C@@H]1[C@]32OO4 [Artemisinin]	40	–	–
O=c1[nH]c(=O)n([C@H]2C[C@H](O)[C@@H](CO)O2)cc1C(F)(F)F [Trifluridine]	27	–	–
CCN1CCN(C(=O)N[C@@H](C(=O)N[C@@H]2C(=O)N3[C@@H]2SC(C)(C)[C@@H]3C(=O)O)c2ccccc2)C(=O)C1=O [piperacillin]	107	–	–
CO/N=C(\C(=O)N[C@@H]1C(=O)N2C(C(=O)O)=C(C[n+]3cccc4c3CCC4)CS[C@H]12)c1csc(N)n1.O=S(=O)([O-])O [Cefpirome sulfate]	93	–	–
CC1(C)S[C@@H]2[C@H](NC(=O)[C@H](N)c3ccccc3)C(=O)N2[C@H]1C(=O)OCOC(=O)[C@@H]1N2C(=O)C[C@H]2S(=O)(=O)C1(C)C [Sultamicillin Tosylate]	93	–	–
O=C([O-])C1=C(CSc2nnnn2CS(=O)(=O)[O-])CS[C@@H]2[C@H](NC(=O)[C@H](O)c3ccccc3)C(=O)N12.[Na+].[Na+] [Cefonicid sodium]	59	–	–
CO/N=C(\C(=O)N[C@@H]1C(=O)N2C(C(=O)O)=C(COC(C)=O)CS[C@H]12)c1csc(N)n1 [Cefotaxime sodium]	99	–	–
CN1CCN(c2c(F)cc3c(=O)c(C(=O)O)cn4c3c2SCC4)CC1.Cl [Rufloxacin hydrochloride]	113	100	–
COS(=O)(=O)[O-].C[n+]1c2ccccc2nc2ccccc21 [Phenazine methosulfate]	80	–	76
C=C1c2c(Cl)ccc(O)c2C(=O)C2=C(O)[C@]3(O)C(=O)C(C(N)=O)=C(O)[C@@H](N(C)C)[C@@H]3[C@@H](O)[C@H]12.O=C(O)c1cc(S(=O)(=O)O)ccc1O [Meclocycline sulfosalicylate salt]	100	100	–
CO/N=C(\C(=O)N[C@@H]1C(=O)N2C(C(=O)[O-])=C(C[n+]3ccc(N)n3CCO)CS[C@H]12)c1csc(N)n1.O=S(=O)(O)O [Cefoselis Sulfate]	107	–	–
Cc1cc(CC(C)CC(C)(C)C)n(O)c(=O)c1.NCCO (stereo not drawn) [Piroctone olamine]	54	–	–
CO[C@H]1/C=C/O[C@@]2(C)Oc3c(C)c(O)c4c([O-])c(cc(O)c4c3C2=O)NC(=O)/C(C)=C\C=C\[C@H](C)[C@H](O)[C@@H](C)[C@@H](O)[C@@H](C)[C@H](OC(C)=O)[C@@H]1C.[Na+] [Rifamycin sodium salt]	25	–	–
CCN1CCN(c2cc3c(cc2F)c(=O)c(C(=O)O)cn3C2CC2)CC1 [Enrofloxacin]	95	–	–
Oc1c(I)cc(Cl)c2cccnc12 [Clioquinol]	94	–	–

Reference: publication PMC11358092, “Caspofungin enhances the potency of rifampin against Gram-negative bacteria” (Frontiers in Microbiology, 2024)
